Assay results published in patent US20110144012A1, “SHORTENED GLUCAGON-LIKE PEPTIDE 1(SGLP-1) PREPARATION METHOD AND APPLICATION” (Dalian D.N. Bio-Engineering Co., Ltd., priority 2005, published 2011).

Assays:
[1] = in comparison with GLP-1; cited from earlier work
[2] = in comparison with GLP-1; U.S. Pat. No. 5,424,286; cited from earlier work
[3] = test system: GK diabetes mellitus rats; assay: Blood glucose-lowering effect experiment in GK diabetes mellitus rats (fasting blood glucose level); format: in vivo; details: injected 0.1 mg/time, twice a day for two weeks, fasted overnight
Method: Material and Method • GK diabetes mellitus rats (Provided by Shanghai Laboratory Animal Center, Chinese Academy of Sciences)
sGLP-1 sequence is as follows:
• The above eight polypeptides with different sequence is mixed with 0.9% NaCl solution to prepare 1 mg/ml solution, which is standby. • The rats are grouped at random, and fast overnight. Use graduated capillaries (treated with heparin before injection) to sample 20 microliters of blood from their orbital sinuses, add 300 microliters of normal saline to the blood and mix well, centrifuge it at 3000 rpm to remove erythrocyte, and use blood serum for fasting blood glucose level determination. Inject each group of rats with different polypeptides, and use normal saline as Control N. All the rats are injected at 0.1 mg/time, twice a day for two weeks. They must fast overnight, and be sampled according to the above method for fasting blood glucose level determination. […] No. 1 sequence is full-length GLP-1 sequence, in which the second amino acid is changed from A to G, as Control P; No. 2 to No. 5 are the reconstructed sequences with different shortened length.

[4] = test system: NOD mice; assay: Blood glucose-lowering effect on NOD mice (glucose injection); format: in vivo; details: for blood glucose level, 0 minutes after administration / blood glucose level, 5 minutes after administration / blood glucose level, 10 minutes after administration / blood glucose level, 20 minutes after administration: NOD mice fasted overnight, 200 microliters 40% glucose + 10 microgram peptide; for blood glucose-lowering effect (in words): NOD mice, glucose injection + 10 microgram peptide
Method: Experimental Material and Method: • NOD mice (Provided by Shanghai Laboratory Animal Center, Chinese Academy of Sciences) fasting overnight. • 40% glucose, 0.9% NaCl solution, pure sGLP-1 product (Prepared in Example 1), pure GLP-1 product, reagent kit for blood glucose level determination (Made by Shanghai Institute of Biological Products (SIBP), Ministry of Health P.R.China.) NOD mice fast overnight, and are divided into three groups. Fasting Group 1 is injected with 200 microliters of 40% glucose and 10 microgram of sGLP-1; Fasting Group 2 is injected with 200 microliters of 40% glucose and 10 microgram of GLP-1; Group 3, a control group, is injected with only glucose. Immediately use graduated capillaries (treated with heparin before injection) to sample 20 microliters of blood from their orbital sinuses, add 300 microliters of normal saline to the blood and mix well, centrifuge it at 3000 rpm to remove erythrocyte, and use blood serum for fasting blood glucose level determination. […] The blood serum of the three groups is determined on blood glucose level according to the method in the reagent kit in order to check the blood glucose-lowering effect of each group.

[5] = test system: NOD mice; assay: Insulinotropic hormone secretion effect of sGLP-1 (serum insulin, radio immunity kit); format: in vivo; details: fasting NOD mice, 10 microgram injected
Method: Experimental Material and Method: • NOD mice (Provided by Shanghai Laboratory Animal Center, Chinese Academy of Sciences) • 0.9% NaCl solution, pure sGLP-1 product (prepared in Example 1), pure GLP-1 product, and radio immunity insulin determination reagent kit (Made by Shanghai Institute of Biological Products (SIBP), Ministry of Health P.R.China.) NOD mice are divided into three groups. Use graduated capillary (wash the inner walls of the capillaries with 1 mg/mL heparin and dry the capillaries) to sample 50 microliters of blood from their orbital sinuses first, and inject the three groups of fasting mice with 10 microgram of sGLP-1, 10 microgram of GLP-1 and 200 microliters of normal saline, and regard this time as zero. Repeat the above operation at 5, 10, 20 and 30 minutes after that respectively. Place all the blood samples in a centrifuge tube with 50 microliters of normal saline in it, mix the blood samples and saline well, centrifuge the mixture at 3000 rpm to remove erythrocyte, and determinate insulin level of blood serum according to the method in this radio immunity reagent kit to check insulinotropic hormone secretion effect of sGLP-1. • The experiment result is shown in Table 2.

[6] = test system: Healthy C57/BL mice; assay: C peptide secretion promotion effect of sGLP-1 (serum C peptide, radio immunity kit); format: in vivo; details: fasting healthy C57/BL mice, 10 microgram injected
Method: Experiment Material and Method: • Healthy C57/BL mice (Provided by Shanghai Laboratory Animal Center, Chinese Academy of Sciences) • 0.9% NaCl solution, pure sGLP-1 product (Prepared in Example 1), pure GLP-1 product. • Radio immunity C-peptide determination reagent kit (Made by Shanghai Institute of Biological Products (SIBP), Ministry of Health P.R.China.) • Healthy C57/BL mice are divided into three groups. Use graduated capillary (wash the inner walls of the capillaries with 1 mg/mL heparin and dry the capillaries) to sample 50 microliters of blood from their orbital sinuses first, and inject the three groups of fasting mice with 10 microgram of sGLP-1, 10 microgram of GLP-1 and 200 microliters of normal saline, and regard this time as zero. Repeat the above operation at 5, 10, 20 and 30 minutes after that respectively. Place all the blood samples in a centrifuge tube with 50 microliters of normal saline in it, mix the blood samples and saline well, centrifuge the mixture at 3000 rpm to remove erythrocyte, and determinate C peptide level of blood serum according to the method in this radio immunity reagent kit to check C peptide secretion promotion effect of sGLP-1. • The experiment result is shown in Table 3.

Substance	blood glucose-lowering effect (fasting blood glucose level) [3]	blood glucose level, 0 minutes after administration [4] [mmol/L]	blood glucose level, 5 minutes after administration [4] [mmol/L]	blood glucose level, 10 minutes after administration [4] [mmol/L]	blood glucose level, 20 minutes after administration [4] [mmol/L]	blood glucose-lowering effect (in words) [4]	insulin level, 0 minutes after administration [5]	insulin level, 5 minutes after administration [5]	insulin level, 10 minutes after administration [5]	insulin level, 20 minutes after administration [5]	insulin level, 30 minutes after administration [5]	c peptide level, 0 minutes after administration [6] [pmol/mL]	c peptide level, 5 minutes after administration [6] [pmol/mL]	c peptide level, 10 minutes after administration [6] [pmol/mL]	c peptide level, 20 minutes after administration [6] [pmol/mL]	c peptide level, 30 minutes after administration [6] [pmol/mL]	also measured
Exendin 4	–	–	–	–	–	–	–	–	–	–	–	–	–	–	–	–	half time in human body (in words) [1]: longer half time in human body; concentration required for insulin secretion action (in words) [2]: lower
HGEGTFTSDVSSYLEGQAAKEFIAWL [No. 2, shortened glucagon-like peptide 1 of 26 amino acids, X1 is Gly]	blood glucose-lowering effect prominently exceeding No. 1	4.08	4.34	4.28	3.98	have blood glucose-lowering effect	2.88 10^−6 international unit	10.56 10^−6 international unit	19.88 10^−6 international unit	24.67 10^−6 international unit	16.45 10^−6 international unit	0.07	0.08	0.20	0.16	0.15	blood glucose-lowering effect (fasting blood glucose level) ([3]; listed as sGLP-1): better blood glucose-lowering effect than GLP-1 and its reconstructed sequence; insulin secretion promotion (in words) [5]: can prominently promote insulin secretion; insulin generation stimulation capacity compared with GLP-1 (in words) ([5]; short-time versus medium and long-term): the same short-time insulin generation stimulation capacity as GLP-1 and the medium and long-term insulin generation stimulation capacity stronger than GLP-1; c peptide secretion promotion (in words) [6]: can prominently promote c peptide secretion; c peptide secretion promotion capacity compared with GLP-1 (in words) [6]: c peptide secretion promotion capacity exceeding GLP-1
HSEGTFTSDVSSYLEGQAAKEFIAWL [No. 3, shortened glucagon-like peptide 1 of 26 amino acids, X1 is Ser]	blood glucose-lowering effect prominently exceeding No. 1	–	–	–	–	–	–	–	–	–	–	–	–	–	–	–	–
His-Ala-Glu-Gly-Thr-Phe-Thr-Ser-Asp-Val-Ser-Ser-Tyr-Leu-Glu-Gly-Gln-Ala-Ala-Lys-Glu-Phe-Ile-Ala-Trp-Leu-Val-Lys-Gly-Arg [GLP-1]	–	4.11	5.12	4.87	4.03	have blood glucose-lowering effect	3.11 10^−6 international unit	9.76 10^−6 international unit	10.63 10^−6 international unit	11.23 10^−6 international unit	6.27 10^−6 international unit	0.07	0.08	0.15	0.11	0.09	–
